Laboratory results as given in patent publication US10449223B2, “Use of dehydroeburicoic acid from Antrodia camphorata in the treatment or prevention of diabetes and hyperlipidemia” (priority 2016, dated 2019).

Assays:
FAS = experiment: Western blotting: FAS in liver and adipose tissue of mice; conditions: STZ-induced diabetic mice, 28 days
Description: (§6) The study protocol was performed as previously described.^28 Diabetes was induced by intraperitoneal injection of streptozotocin (Sigma Chemical, St. Louis, Mo., USA) for 5 consecutive days. The dosage of STZ was 55 mg/kg (dissolved in 0.05 M cold sodium citrate buffer, pH 4.5). The normal control mice received only citrate buffer of the same volume.
(§7) During the experiment, all mice were fasted overnight, and blood was collected from the retro-orbital sinus. After dosing for 4 weeks, food was removed from the mice at night, and on the next day, the mice after 12 h of fasting were sacrificed. All of the individual tissues were collected and weighed, and parts of tissues were instantly frozen at −80° C. for later target gene analysis.
(§8) PPARα, PPARγ, and FAS proteins were performed by the liver and white adipose tissue of mice. Skeletal muscle from mice was subjected to GLUT4 expression level analysis, and the total membrane fractions were collected with buffer and determined using a described procedure. The protein contents of GLUT4, phospho-AMPK, and total AMPK were detected by Western blotting and determined as described.

SREBP1c = experiment: Semiquantitative RT-PCR, liver tissue: SREBP1c mRNA; assay type: in vivo, C57BL/6J mice; conditions: STZ-induced diabetic mice, 28 days, relative to CON group (so in the source)
Description: (§1) Total RNA from liver tissue was isolated with a Trizol Reagent (Molecular Research Center, Inc., Cincinnati, Ohio) according to the manufacturer's directions. The integrity of the extracted total RNA was examined by 2% agarose gel electrophoresis, and the RNA concentration was determined by the ultraviolet (UV) light absorbency at 260 nm and 280 nm (Spectrophotometer U-2800A, Hitachi). Total RNA (1 μg) was reverse transcribed to cDNA in a reaction mixture containing buffer, and 5 μL Moloney murine leukemia virus reverse transcriptase (Epicentre, Madison, Wis., USA). The polymerase chain reaction (PCR) was performed in a final 25 μL containing 1 U Blend Taq-Plus (TOYOBO, Japan), 1 μL of the RT first-strand cDNA product, 10 μM of each forward (F) and reverse (R) primer, 75 mM Tris-HCl (pH 8.3) containing 1 mg/L Tween 20, 2.5 mM dNTP, and 2 mM MgCl2. The products were run on 2% agarose gels and stained with ethidium bromide.

SREBP2 = experiment: Semiquantitative RT-PCR, liver tissue: SREBP2 mRNA; assay type: in vivo, C57BL/6J mice; conditions: STZ-induced diabetic mice; TT oral (10, 20, 40 mg/kg/day groups, dose not given)
Description: as §1

Akt = experiment: phospho-Akt (Ser473)/total Akt in C2C12 myotube cells (Western blot); assay type: cell-based; conditions: 30 min
Description: (§2) C2C12 skeletal myoblasts (ATCC, CRL-1772) were maintained in growth media consisting of Dulbecco's modified Eagle's medium (DMEM) (Gibco BRL) supplemented with 10% fetal bovine serum (FBS) (Hyclone) and 100 U/mL penicillin/100 μg/mL streptomycin (Gibco BRL) and split 1:4 using 0.05% trypsin when 80% confluent. Myoblasts were diluted and placed in a 9 cm dish. Cells were cultured to achieve 80-90% confluency, and growth medium was changed as 2% FBS/DMEM every 24 h for 5-7 days.
(§3) Determination of GLUT4 and phospho-Akt (Ser^473)/Total Akt Proteins in Vitro: Differentiated C2C12 cells were serum starved in DMEM/BSA (2 h at 37° C.) prior to incubation either with test compounds (TT at 1, 5, 10, and 25 μg/mL) or with vehicle (DMSO containing saline, final concentration of DMSO=0.2%) for 30 min or with 100 nM insulin for 25 min.
(§4) Following treatment, cells were washed three times with ice-cold PBS and separated into two portions. A portion of the cells was subsequently lysed in RIPA buffer (50 mM Tris-HCl, pH 8, 150 mM NaCl, 1% NP-40, 0.5% sodium deoxycholate, 0.1% SDS) supplemented with complete protease inhibitor cocktail (Roche) and phosphatase inhibitors and then centrifuged at 20000 g for […].
Supernatant protein was collected and stored at −20° C. Another portion of cells was homogenized with buffer (250 mmol/L sucrose, 50 mmol/L Tris, and 0.2 mmol/L edetic acid, pH 7.4) at 4° C., as previously described. The homogenates were centrifuged at 9000 g for 10 min (4° C.). The pellet was suspended with 0.5 mL of homogenization buffer and then centrifuged, repeated three times. The three supernatants were collected, mixed, and centrifuged at 190000 g for 60 min (4° C.). […]
(§5) Protein concentration was determined via BCA assay (Pierce). Equal amounts of protein were then diluted four times in SDS sample buffer and subjected to SDS-PAGE and were detected by Western blotting with antibodies specific for Akt, phosph-Akt Ser^473, and GLUT4. The density blotting was analyzed using Alpha Easy FCsoftware (Alpha Innotech Corp., Randburg, South Africa).

GLUT4 [1] = experiment: Western blotting: membrane GLUT4 in skeletal muscle of mice; conditions: STZ-induced diabetic mice, 28 days
Description: as §6, §7, §8

PEPCK = experiment: Semiquantitative RT-PCR, liver tissue: PEPCK mRNA; assay type: in vivo, C57BL/6J mice; conditions: STZ-induced diabetic mice, 28 days, relative to CON group (so in the source)
Description: as §1

[2] = test system: STZ-induced diabetic mice; experiment: Tissue weight, body weight and food intake in STZ-induced diabetic mice; assay type: in vivo, C57BL/6J mice; conditions: 28 days
G6 Pase = experiment: Semiquantitative RT-PCR, liver tissue: G6 Pase mRNA; assay type: in vivo, C57BL/6J mice; conditions: STZ-induced diabetic mice, 28 days, relative to CON group (so in the source)
Description: as §1

DGAT2 = experiment: Semiquantitative RT-PCR, liver tissue: DGAT2 mRNA; assay type: in vivo, C57BL/6J mice; conditions: STZ-induced diabetic mice, 28 days, relative to CON group (so in the source)
Description: as §1

PPARα [3] = experiment: Western blotting: PPARα in liver of mice; conditions: STZ-induced diabetic mice, 28 days
Description: as §6, §7, §8

AMPK = experiment: Western blotting: phospho-AMPK (Thr172)/total AMPK in skeletal muscle and liver of mice; conditions: STZ-induced diabetic mice, 28 days
Description: as §6, §7, §8

PPARγ = experiment: Western blotting: PPARγ in liver and adipose tissue of mice; conditions: STZ-induced diabetic mice, 28 days
Description: as §6, §7, §8

PPARα [4] = experiment: Semiquantitative RT-PCR, liver tissue: PPARα mRNA; assay type: in vivo, C57BL/6J mice; conditions: STZ-induced diabetic mice, 28 days
Description: as §1

CPT1a = experiment: Semiquantitative RT-PCR, liver tissue: CPT1a mRNA; assay type: in vivo, C57BL/6J mice; conditions: STZ-induced diabetic mice; TT oral (10, 20, 40 mg/kg/day groups, dose not given)
Description: as §1

[5] = test system: STZ-induced diabetic mice; experiment: Histology of epididymal WAT and liver tissue in STZ-induced diabetic mice; assay type: in vivo, C57BL/6J mice; conditions: 28 days
From the text: Parts of EWAT and liver tissue specimens were investigated as previously described.^31,32 Microscopic images were taken using a microscope (Olympus BX51, BX51, Olympus, Tokyo, Japan).

GLUT4 [6] = experiment: GLUT4 protein expression in C2C12 myotube cells (Western blot); assay type: cell-based; conditions: 30 min
Description: as §2, §3, §4
Supernatant protein was collected and stored at −20° C. Another portion of cells was homogenized with buffer (250 mmol/L sucrose, 50 mmol/L Tris, and 0.2 mmol/L edetic acid, pH 7.4) at 4° C., as previously described. The homogenates were centrifuged at 9000 g for 10 min (4° C.). The pellet was suspended with 0.5 mL of homogenization buffer and then centrifuged, repeated three times. The three supernatants were collected, mixed, and centrifuged at 190000 g for 60 min (4° C.). The pellet was resuspended with 0.2 mL of homogenization buffer, stored at −20° C., and performed within membrane.
as §5

C=C(CC[C@@H](C(=O)O)[C@H]1CC[C@@]2(C)C3=CC[C@H]4C(C)(C)[C@@H](O)CC[C@]4(C)C3=CC[C@]12C)C(C)C [TT, dehydroeburicoic acid]
expression levels of FAS in adipose tissue (FAS; TT 10 mg/kg/day oral): decreased
expression levels of FAS in the liver (FAS; TT 10 mg/kg/day oral): decreased
expression levels of FAS in adipose tissue (FAS; TT 20 mg/kg/day oral): decreased
expression levels of FAS in the liver (FAS; TT 20 mg/kg/day oral): decreased
expression levels of FAS in adipose tissue (FAS; TT 40 mg/kg/day oral): decreased
expression levels of FAS in the liver (FAS; TT 40 mg/kg/day oral): decreased
mRNA levels of SREBP1c in liver (SREBP1c; TT 10 mg/kg/day oral): decreased
mRNA levels of SREBP1c in liver (SREBP1c; TT 20 mg/kg/day oral): decreased
mRNA levels of SREBP1c in liver (SREBP1c; TT 40 mg/kg/day oral): decreased
SREBP2 mRNA levels in liver (SREBP2): decreased
levels of phospho-Akt (Ser473)/total Akt proteins vs CON group (Akt; TT 10 μg/mL): higher
levels of phospho-Akt (Ser473)/total Akt proteins vs CON group (Akt; TT 25 μg/mL): higher
membrane expression levels of GLUT4 in skeletal muscle vs STZ group (GLUT4 [1]; TT 10 mg/kg/day oral): greater
membrane expression levels of GLUT4 in skeletal muscle vs STZ group (GLUT4 [1]; TT 20 mg/kg/day oral): greater
membrane expression levels of GLUT4 in skeletal muscle vs STZ group (GLUT4 [1]; TT 40 mg/kg/day oral): greater
mRNA levels of PEPCK in liver (PEPCK; TT 10 mg/kg/day oral): decreased
mRNA levels of PEPCK in liver (PEPCK; TT 20 mg/kg/day oral): decreased
mRNA levels of PEPCK in liver (PEPCK; TT 40 mg/kg/day oral): decreased
Tissue weight: BAT ([2]; TT 10 mg/kg/day oral): 0.296 ± 0.012 wt %
Tissue weight: EWAT ([2]; TT 10 mg/kg/day oral): 0.778 ± 0.063 wt %
Tissue weight: MWAT ([2]; TT 10 mg/kg/day oral): 0.562 ± 0.114 wt %
Tissue weight: RWAT ([2]; TT 10 mg/kg/day oral): 0.122 ± 0.029 wt %
Tissue weight: Visceral fat ([2]; TT 10 mg/kg/day oral): 0.900 ± 0.082 wt %
Tissue weight: BAT ([2]; TT 20 mg/kg/day oral): 0.323 ± 0.026 wt %
Tissue weight: EWAT ([2]; TT 20 mg/kg/day oral): 0.783 ± 0.087 wt %
Tissue weight: MWAT ([2]; TT 20 mg/kg/day oral): 0.709 ± 0.111 wt %
Tissue weight: RWAT ([2]; TT 20 mg/kg/day oral): 0.161 ± 0.031 wt %
Tissue weight: Visceral fat ([2]; TT 20 mg/kg/day oral): 0.944 ± 0.115 wt %
Tissue weight: EWAT ([2]; TT 40 mg/kg/day oral): 0.715 ± 0.068 wt %
Tissue weight: MWAT ([2]; TT 40 mg/kg/day oral): 0.720 ± 0.114 wt %
Tissue weight: RWAT ([2]; TT 40 mg/kg/day oral): 0.119 ± 0.014 wt %
Tissue weight: Visceral fat ([2]; TT 40 mg/kg/day oral): 0.834 ± 0.082 wt %
mRNA levels of G6 Pase in liver (G6 Pase; TT 10 mg/kg/day oral): decreased
mRNA levels of G6 Pase in liver (G6 Pase; TT 20 mg/kg/day oral): decreased
mRNA levels of G6 Pase in liver (G6 Pase; TT 40 mg/kg/day oral): decreased
mRNA levels of DGAT2 in liver (DGAT2; TT 10 mg/kg/day oral): decreased
mRNA levels of DGAT2 in liver (DGAT2; TT 20 mg/kg/day oral): decreased
mRNA levels of DGAT2 in liver (DGAT2; TT 40 mg/kg/day oral): decreased
expression levels of PPARα in the liver (PPARα [3]; TT 10 mg/kg/day oral): increased
expression levels of PPARα in the liver (PPARα [3]; TT 20 mg/kg/day oral): increased
expression levels of PPARα in the liver (PPARα [3]; TT 40 mg/kg/day oral): increased
expression levels of phospho-AMPK/total AMPK in skeletal muscle (AMPK; TT 10 mg/kg/day oral): increased
muscular expression levels of phospho-AMPK/total AMPK compared with the STZ group (second sentence) (AMPK; TT 10 mg/kg/day oral): increased
expression levels of phospho-AMPK/total AMPK in skeletal muscle (AMPK; TT 20 mg/kg/day oral): increased
muscular expression levels of phospho-AMPK/total AMPK compared with the STZ group (second sentence) (AMPK; TT 20 mg/kg/day oral): increased
expression levels of phospho-AMPK/total AMPK in skeletal muscle (AMPK; TT 40 mg/kg/day oral): increased
muscular expression levels of phospho-AMPK/total AMPK compared with the STZ group (second sentence) (AMPK; TT 40 mg/kg/day oral): increased
expression levels of PPARγ in adipose tissue (PPARγ; TT 10 mg/kg/day oral): decreased
expression levels of PPARγ in the liver (PPARγ; TT 10 mg/kg/day oral): decreased
expression levels of PPARγ in adipose tissue (PPARγ; TT 20 mg/kg/day oral): decreased
expression levels of PPARγ in the liver (PPARγ; TT 20 mg/kg/day oral): decreased
expression levels of PPARγ in adipose tissue (PPARγ; TT 40 mg/kg/day oral): decreased
expression levels of PPARγ in the liver (PPARγ; TT 40 mg/kg/day oral): decreased
mRNA level of PPARα in liver (PPARα [4]; TT 10 mg/kg/day oral): increased
mRNA level of PPARα in liver (PPARα [4]; TT 20 mg/kg/day oral): increased
mRNA level of PPARα in liver (PPARα [4]; TT 40 mg/kg/day oral): increased
CPT1a mRNA levels in liver (CPT1a): enhanced
ballooning of hepatocyte (liver histology) ([5]; TT 10 mg/kg/day oral): no ballooning phenomenon
average area of adipocytes in epididymal WAT ([5]; TT 20 mg/kg/day oral): 5379.9±187.2 μm^2
ballooning of hepatocyte (liver histology) ([5]; TT 20 mg/kg/day oral): no ballooning phenomenon
average area of adipocytes in epididymal WAT ([5]; TT 40 mg/kg/day oral): 4910.5±104.9 μm^2
ballooning of hepatocyte (liver histology) ([5]; TT 40 mg/kg/day oral): no ballooning phenomenon
protein expressions of GLUT4 vs CON group (GLUT4 [6]; TT 1 μg/mL): higher
protein expressions of GLUT4 vs CON group (GLUT4 [6]; TT 5 μg/mL): higher
protein expressions of GLUT4 vs CON group (GLUT4 [6]; TT 10 μg/mL): higher
protein expressions of GLUT4 vs CON group (GLUT4 [6]; TT 25 μg/mL): higher
